System: 922993-354-T-J3-PDC complex spheroids, viability, % test/control
Experiment: Anticancer human tumor 922993-354-T-J3-PDC patient-derived endometrial carcinoma cell line growth inhibition [CLK]
Details: for IC50: curve of first compound; for viability, T/C: stronger effect = lower value
Outline: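 Patient-derived tumor cells grown as complex spheroids with HUVEC endothelial cells and mesenchymal stem cells, treated with drug combinations. Concentrations descend in half-log steps from near clinical Cmax, or from 10 microM if Cmax unknown.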

[1] = second compound 0.0316 µM, first compound 0.0316 µM
[2] = second compound 0.0316 µM, first compound 0.1 µM
[3] = second compound 0.0316 µM, first compound 0.316 µM
[4] = second compound 0.0316 µM, first compound 1 µM
[5] = second compound 0.0316 µM, first compound 3.16 µM
[6] = second compound 0.0316 µM, first compound 10 µM
[7] = second compound 0.1 µM, first compound 0.0316 µM
[8] = second compound 0.1 µM, first compound 0.1 µM
[9] = second compound 0.1 µM, first compound 0.316 µM
[10] = second compound 0.1 µM, first compound 1 µM
[11] = second compound 0.1 µM, first compound 3.16 µM
[12] = second compound 0.1 µM, first compound 10 µM
[13] = second compound 0.316 µM, first compound 0.0316 µM
[14] = second compound 0.316 µM, first compound 0.1 µM
[15] = second compound 0.316 µM, first compound 0.316 µM
[16] = second compound 0.316 µM, first compound 1 µM
[17] = second compound 0.316 µM, first compound 3.16 µM
[18] = second compound 0.316 µM, first compound 10 µM
[19] = second compound 1 µM, first compound 0.0316 µM
[20] = second compound 1 µM, first compound 0.1 µM
[21] = second compound 1 µM, first compound 0.316 µM
[22] = second compound 1 µM, first compound 1 µM
[23] = second compound 1 µM, first compound 3.16 µM
[24] = second compound 1 µM, first compound 10 µM
[25] = second compound 3.16 µM, first compound 0.0316 µM
[26] = second compound 3.16 µM, first compound 0.1 µM
[27] = second compound 3.16 µM, first compound 0.316 µM
[28] = second compound 3.16 µM, first compound 1 µM
[29] = second compound 3.16 µM, first compound 3.16 µM
[30] = second compound 3.16 µM, first compound 10 µM
[31] = second compound 10 µM, first compound 0.0316 µM
[32] = second compound 10 µM, first compound 0.1 µM
[33] = second compound 10 µM, first compound 0.316 µM
[34] = second compound 10 µM, first compound 1 µM
[35] = second compound 10 µM, first compound 3.16 µM
[36] = second compound 10 µM, first compound 10 µM
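Note: spheroids exposed to the agents for 7 days before readout.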

`CC(C)CC(NC(=O)C(Cc1ccccc1)NC(=O)c1cnccn1)B(O)O` (stereo unspecified) + CNC(=O)c1ccc(Nc2nc(OC3CCCC3)c3c(-c4ccc5nc(C)oc5c4)c[nH]c3n2)c(OC)c1 showed an IC50 (second compound 0.0316 µM) of 10.3 nM, an IC50 (second compound 0.1 µM) of 11.1 nM and an IC50 (second compound 0.316 µM) of 5.27 nM. For the same compound, the IC50 (second compound 1 µM) was < 0.949 nM, the IC50 (second compound 3.16 µM) was < 0.949 nM and the IC50 (second compound 10 µM) was < 0.949 nM. It also gave a viability, T/C (second compound 0.0316 µM, first compound 0.000949 µM) of 106%, a viability, T/C (second compound 0.0316 µM, first compound 0.003 µM) of 91.4% and a viability, T/C (second compound 0.0316 µM, first compound 0.00949 µM) of 53%. For the same compound, the viability, T/C (second compound 0.0316 µM, first compound 0.03 µM) was 15%, the viability, T/C (second compound 0.0316 µM, first compound 0.0949 µM) was 1.67% and the viability, T/C (second compound 0.0316 µM, first compound 0.3 µM) was 2.25%. For the same compound, the viability, T/C (second compound 0.1 µM, first compound 0.000949 µM) was 79.8%, the viability, T/C (second compound 0.1 µM, first compound 0.003 µM) was 65.5% and the viability, T/C (second compound 0.1 µM, first compound 0.00949 µM) was 57.2%. It also gave a viability, T/C (second compound 0.1 µM, first compound 0.03 µM) of 10.3%, a viability, T/C (second compound 0.1 µM, first compound 0.0949 µM) of 2.17% and a viability, T/C (second compound 0.1 µM, first compound 0.3 µM) of 0.85%. For the same compound, the viability, T/C (second compound 0.316 µM, first compound 0.000949 µM) was 80.2%, the viability, T/C (second compound 0.316 µM, first compound 0.003 µM) was 64.4% and the viability, T/C (second compound 0.316 µM, first compound 0.00949 µM) was 35.2%. The viability, T/C (second compound 0.316 µM, first compound 0.03 µM) was 6.18%, the viability, T/C (second compound 0.316 µM, first compound 0.0949 µM) was 2.17% and the viability, T/C (second compound 0.316 µM, first compound 0.3 µM) was 0.48%. It also gave a viability, T/C (second compound 1 µM, first compound 0.000949 µM) of 36.8%, a viability, T/C (second compound 1 µM, first compound 0.003 µM) of 32.6% and a viability, T/C (second compound 1 µM, first compound 0.00949 µM) of 14%. For the same compound, the viability, T/C (second compound 1 µM, first compound 0.03 µM) was 3.9%, the viability, T/C (second compound 1 µM, first compound 0.0949 µM) was 0.77% and the viability, T/C (second compound 1 µM, first compound 0.3 µM) was 1.23%. For the same compound, the viability, T/C (second compound 3.16 µM, first compound 0.000949 µM) was 30.9%, the viability, T/C (second compound 3.16 µM, first compound 0.003 µM) was 19.4% and the viability, T/C (second compound 3.16 µM, first compound 0.00949 µM) was 2.49%. The viability, T/C (second compound 3.16 µM, first compound 0.03 µM) was 2.35%, the viability, T/C (second compound 3.16 µM, first compound 0.0949 µM) was 0.79% and the viability, T/C (second compound 3.16 µM, first compound 0.3 µM) was 0.78%. It also gave a viability, T/C (second compound 10 µM, first compound 0.000949 µM) of 25%, a viability, T/C (second compound 10 µM, first compound 0.003 µM) of 15% and a viability, T/C (second compound 10 µM, first compound 0.00949 µM) of 3.13%. For the same compound, the viability, T/C (second compound 10 µM, first compound 0.03 µM) was 3.29%, the viability, T/C (second compound 10 µM, first compound 0.0949 µM) was 0.81% and the viability, T/C (second compound 10 µM, first compound 0.3 µM) was 0.61%.
With `CC1(C)CCC(CN2CCN(c3ccc(C(=O)NS(=O)(=O)c4ccc(NCC5CCOCC5)c([N+](=O)[O-])c4)c(Oc4cnc5[nH]ccc5c4)c3)CC2)=C(c2ccc(Cl)cc2)C1` + CNC(=O)c1ccc(Nc2nc(OC3CCCC3)c3c(-c4ccc5nc(C)oc5c4)c[nH]c3n2)c(OC)c1 the IC50 (second compound 0.0316 µM) was > 10000 nM, the IC50 (second compound 0.1 µM) was > 10000 nM and the IC50 (second compound 0.316 µM) was 4840 nM. For the same compound, the IC50 (second compound 1 µM) was < 31.6 nM, the IC50 (second compound 3.16 µM) was < 31.6 nM and the IC50 (second compound 10 µM) was < 31.6 nM. For the same compound, the viability, T/C [1] was 108%, the viability, T/C [2] was 96% and the viability, T/C [3] was 102%. For the same compound, the viability, T/C [4] was 88%, the viability, T/C [5] was 108% and the viability, T/C [6] was 66.1%. It also gave a viability, T/C [7] of 108%, a viability, T/C [8] of 105% and a viability, T/C [9] of 110%. For the same compound, the viability, T/C [10] was 104%, the viability, T/C [11] was 113% and the viability, T/C [12] was 61.5%. It also gave a viability, T/C [13] of 69.8%, a viability, T/C [14] of 62.8% and a viability, T/C [15] of 61.3%. It also gave a viability, T/C [16] of 58.7%, a viability, T/C [17] of 64.4% and a viability, T/C [18] of 27.1%. For the same compound, the viability, T/C [19] was 36.3%, the viability, T/C [20] was 37.7% and the viability, T/C [21] was 27.1%. The viability, T/C [22] was 38.2%, the viability, T/C [23] was 31.8% and the viability, T/C [24] was 17.9%. For the same compound, the viability, T/C [25] was 29.6%, the viability, T/C [26] was 33.6% and the viability, T/C [27] was 28.6%. For the same compound, the viability, T/C [28] was 31.3%, the viability, T/C [29] was 29% and the viability, T/C [30] was 15.4%. The viability, T/C [31] was 31.4%, the viability, T/C [32] was 25.7% and the viability, T/C [33] was 26%. It also gave a viability, T/C [34] of 25%, a viability, T/C [35] of 29.4% and a viability, T/C [36] of 13.6%.
In the case of `CC1COCCN1c1cc(C2(S(C)(=N)=O)CC2)nc(-c2ccnc3[nH]ccc23)n1` (stereo unspecified) + CNC(=O)c1ccc(Nc2nc(OC3CCCC3)c3c(-c4ccc5nc(C)oc5c4)c[nH]c3n2)c(OC)c1, the IC50 (second compound 0.0316 µM) is reported as > 10000 nM, the IC50 (second compound 0.1 µM) is reported as > 10000 nM and the IC50 (second compound 0.316 µM) is reported as > 10000 nM. The IC50 (second compound 1 µM) was < 31.6 nM, the IC50 (second compound 3.16 µM) was < 31.6 nM and the IC50 (second compound 10 µM) was < 31.6 nM. For the same compound, the viability, T/C [1] was 88.2%, the viability, T/C [2] was 108% and the viability, T/C [3] was 98.8%. It also gave a viability, T/C [4] of 115%, a viability, T/C [5] of 106% and a viability, T/C [6] of 104%. The viability, T/C [7] was 111%, the viability, T/C [8] was 119% and the viability, T/C [9] was 115%. It also gave a viability, T/C [10] of 116%, a viability, T/C [11] of 101% and a viability, T/C [12] of 80.5%. For the same compound, the viability, T/C [13] was 67.4%, the viability, T/C [14] was 56% and the viability, T/C [15] was 55%. The viability, T/C [16] was 66.9%, the viability, T/C [17] was 75.9% and the viability, T/C [18] was 40.5%. The viability, T/C [19] was 35.2%, the viability, T/C [20] was 33.1% and the viability, T/C [21] was 34.1%. The viability, T/C [22] was 34.7%, the viability, T/C [23] was 27% and the viability, T/C [24] was 14.7%. It also gave a viability, T/C [25] of 34.1%, a viability, T/C [26] of 32.8% and a viability, T/C [27] of 31.1%. For the same compound, the viability, T/C [28] was 32.3%, the viability, T/C [29] was 21.1% and the viability, T/C [30] was 9.92%. The viability, T/C [31] was 32%, the viability, T/C [32] was 27.5% and the viability, T/C [33] was 28.2%. For the same compound, the viability, T/C [34] was 27.5%, the viability, T/C [35] was 20.6% and the viability, T/C [36] was 9.29%.
